PMC8600679, “Substituted Two- to Five-Ring Polycyclic Aromatic Compounds Are Potent Agonists of Atlantic Cod (Gadus morhua) Aryl Hydrocarbon Receptors Ahr1a and Ahr2a” (Environmental Science & Technology, 2021)
Like-named read-outs stand apart in the source and are kept apart here.

Experiments:
Atlantic cod Ahr2a = target: T1, Atlantic cod Ahr2a (Gadus morhua, UniProt A0A6H1Z3G8); test: cell-based; settings: for Activation of Ahr2a (agonist or not): in vitro transactivation; for fold higher REP25 with Ahr2a compared to Ahr1a: Ahr2a versus Ahr1a; for Ahr2a REP25: EC25 of TCDD divided by concentration of PAC giving 25% of TCDD response; for Efficacy compared to TCDD via Ahr2a: Welch's t-test, Supporting Table S6
T1 sequence (A0A6H1Z3G8 1-1127): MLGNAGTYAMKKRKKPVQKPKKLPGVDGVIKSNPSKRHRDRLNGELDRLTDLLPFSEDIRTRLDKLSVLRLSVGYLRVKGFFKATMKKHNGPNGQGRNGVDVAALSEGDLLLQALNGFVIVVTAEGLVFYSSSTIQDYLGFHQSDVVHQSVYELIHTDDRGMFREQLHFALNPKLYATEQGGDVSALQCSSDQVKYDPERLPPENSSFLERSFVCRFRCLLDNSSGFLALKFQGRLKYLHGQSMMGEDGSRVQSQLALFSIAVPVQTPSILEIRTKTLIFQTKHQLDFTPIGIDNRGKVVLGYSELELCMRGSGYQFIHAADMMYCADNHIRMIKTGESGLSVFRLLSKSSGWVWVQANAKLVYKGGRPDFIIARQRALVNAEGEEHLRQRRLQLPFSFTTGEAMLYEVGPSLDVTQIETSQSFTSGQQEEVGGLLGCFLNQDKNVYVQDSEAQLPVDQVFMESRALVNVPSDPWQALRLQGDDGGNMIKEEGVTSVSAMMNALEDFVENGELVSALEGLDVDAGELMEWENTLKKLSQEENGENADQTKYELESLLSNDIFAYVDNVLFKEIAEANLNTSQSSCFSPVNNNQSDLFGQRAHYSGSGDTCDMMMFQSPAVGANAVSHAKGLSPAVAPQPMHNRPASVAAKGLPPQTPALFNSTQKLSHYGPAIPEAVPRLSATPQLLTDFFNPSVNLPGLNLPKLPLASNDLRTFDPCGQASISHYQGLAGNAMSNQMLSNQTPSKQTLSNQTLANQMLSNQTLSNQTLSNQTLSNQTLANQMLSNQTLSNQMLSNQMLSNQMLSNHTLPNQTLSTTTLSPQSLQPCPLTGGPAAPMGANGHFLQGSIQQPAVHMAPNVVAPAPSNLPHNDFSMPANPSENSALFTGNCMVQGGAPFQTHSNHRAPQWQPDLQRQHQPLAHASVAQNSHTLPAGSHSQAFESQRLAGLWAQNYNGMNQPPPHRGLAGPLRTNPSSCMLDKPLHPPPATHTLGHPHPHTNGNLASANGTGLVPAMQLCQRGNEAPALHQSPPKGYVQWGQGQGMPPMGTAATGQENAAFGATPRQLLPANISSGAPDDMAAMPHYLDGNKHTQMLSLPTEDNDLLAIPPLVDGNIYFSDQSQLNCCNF

COS-7 cells = test: Resazurin reduction viability assay; type: cell-based, simian; settings: highest concentrations used; relative to 0.5% DMSO solvent control
Experimental: COS-7 simian kidney cells were seeded onto 96 well plates (10 000 cells/well) in Dulbecco’s modified Eagle’s medium (DMEM) with phenol red, supplemented with 10% fetal bovine serum (FBS), 4 mM L-glutamate, 1 mM sodium pyruvate, and 100 U/mL penicillin–streptomycin (Merck KGaA, Darmstadt, Germany), and cultivated at 37 °C with 5% CO2 for 24 h. Cells were transiently co-transfected with a eukaryotic expression plasmid (pcDNA3.1/Zeo(+), 31 ng/well), pcDNA3.1/Zeo(+)-based plasmids encoding gmAhr1a or gmAhr2a (3 ng/well), gmArnt1 (6 ng/well),[37] a luciferase reporter plasmid containing four DREs (pGudLuc6.1, 30 ng/well), and a β-galactosidase normalization plasmid (pCMV-βGAL, 30 ng/well),[45],[46] using a Mirus TransIT LT-1 transfection reagent according to the recommendations of the supplier. COS-7 cells were seeded and cultivated in DMEM (4500 mg/L glucose), supplemented with 10% FBS, 1 mM sodium pyruvate, and 4 mM L-glutamine. In the exposure medium, FBS was substituted with 10% charcoal-stripped FBS (VWR International, Radnor). To create the exposure media with the highest test concentration, compounds solved in dimethyl sulfoxide (DMSO) were diluted 1:200 in exposure medium, resulting in exposure media with 1× test compound and 0.5% DMSO. The highest concentration exposure media were serially diluted five times (1:2 for the first dilution, then 1:5) in exposure medium supplemented with 0.5% DMSO. Following transfection, cells were incubated in exposure media containing PACs or solvent control (0.5% DMSO) for 24 h. Reporter gene assays were repeated at least three times and with three technical replicates per exposure. TCDD (30 pM to 100 nM) was used as a known agonist in each experiment. Absorbance and luminescence measurements were performed on an EnSpire Multimode plate reader (PerkinElmer, Waltham, MA). While no wavelength filtering was used to measure firefly luciferase activity by luminescence, absorbance measurements to quantify β-galactosidase activity were performed at 420 nm wavelength. The viability of exposed cells was evaluated using the resazurin reduction assay as previously described.[47],[48]
Recorded luminescence was normalized for variation in transfection efficiencies using β-galactosidase enzyme activity. The difference in normalized light units measured in lysates from exposed cells to solvent-exposed cells was calculated and expressed relative to the maximum response in TCDD-exposed cells. Response curves were prepared by nonlinear regression analyses in Prism v7 and used for the determination of half-maximal effective concentration values (EC50) and maximum efficacies (Emax). EC50 values were only determined for compounds that produced a sigmoidal concentration–response curve. Relative effect potencies 25 (REP25) were determined by dividing the EC25 of TCDD by the concentration of PAC necessary to produce a response equal to 25% of the response of TCDD with gmAhrs, essentially as described by Villeneuve et al. and Lam et al.[49],[50] The D’Agostino–Pearson (Ahr activation data) or Kolmogorov–Smirnov (viability data) normality tests were used to confirm the normal distribution of the data. One-way analysis of variance (ANOVA) and Dunnett′s test were used to compare responses at different concentrations of compounds and solvent control mediated via the same Ahr, in addition to comparing metabolic activity in PAC-exposed cells and cells exposed to solvent control in the resazurin reduction assay. Welch′s t-test was used to compare the maximum Ahr-mediated response and potency (Emax and EC50) between Ahr1a or Ahr2a produced by the same test compound (Prism v7).

Atlantic cod Ahr1a = Atlantic cod Ahr1a (Gadus morhua, UniProt A0A6H1Z2L5); test: cell-based; settings: for Activation of Ahr1a (agonist or not): in vitro transactivation; for Ahr1a REP25: EC25 of TCDD divided by concentration of PAC giving 25% of TCDD response; for Efficacy compared to TCDD with Ahr1a: Welch's t-test, Supporting Table S6
Sequence of Atlantic cod Ahr1a (A0A6H1Z2L5 1-957): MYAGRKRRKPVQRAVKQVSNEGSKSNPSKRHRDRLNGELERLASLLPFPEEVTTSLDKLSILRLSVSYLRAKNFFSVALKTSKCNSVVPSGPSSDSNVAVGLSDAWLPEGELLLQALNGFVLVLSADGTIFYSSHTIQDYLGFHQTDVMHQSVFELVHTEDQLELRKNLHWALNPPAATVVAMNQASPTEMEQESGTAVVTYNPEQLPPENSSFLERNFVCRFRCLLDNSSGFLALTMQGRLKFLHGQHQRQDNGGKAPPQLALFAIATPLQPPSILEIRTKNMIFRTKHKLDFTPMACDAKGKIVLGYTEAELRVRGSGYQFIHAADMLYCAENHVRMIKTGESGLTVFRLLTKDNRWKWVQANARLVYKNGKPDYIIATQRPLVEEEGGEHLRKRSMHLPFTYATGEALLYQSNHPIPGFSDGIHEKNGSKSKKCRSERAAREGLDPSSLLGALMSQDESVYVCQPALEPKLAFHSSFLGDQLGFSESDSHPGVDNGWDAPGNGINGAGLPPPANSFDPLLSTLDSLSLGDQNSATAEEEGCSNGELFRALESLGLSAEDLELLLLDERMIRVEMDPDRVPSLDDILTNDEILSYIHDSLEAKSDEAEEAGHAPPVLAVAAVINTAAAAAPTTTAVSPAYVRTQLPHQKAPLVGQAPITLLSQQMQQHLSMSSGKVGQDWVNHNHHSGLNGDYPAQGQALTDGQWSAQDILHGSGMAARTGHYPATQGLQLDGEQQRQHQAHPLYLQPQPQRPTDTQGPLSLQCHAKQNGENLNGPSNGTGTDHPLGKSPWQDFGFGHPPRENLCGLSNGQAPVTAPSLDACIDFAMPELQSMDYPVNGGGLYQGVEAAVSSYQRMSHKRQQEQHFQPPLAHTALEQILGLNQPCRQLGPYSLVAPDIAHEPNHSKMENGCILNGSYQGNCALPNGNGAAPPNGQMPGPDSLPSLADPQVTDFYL
Sequence of Atlantic cod Ahr1a (A0A8C5CZZ9 1-645 partner): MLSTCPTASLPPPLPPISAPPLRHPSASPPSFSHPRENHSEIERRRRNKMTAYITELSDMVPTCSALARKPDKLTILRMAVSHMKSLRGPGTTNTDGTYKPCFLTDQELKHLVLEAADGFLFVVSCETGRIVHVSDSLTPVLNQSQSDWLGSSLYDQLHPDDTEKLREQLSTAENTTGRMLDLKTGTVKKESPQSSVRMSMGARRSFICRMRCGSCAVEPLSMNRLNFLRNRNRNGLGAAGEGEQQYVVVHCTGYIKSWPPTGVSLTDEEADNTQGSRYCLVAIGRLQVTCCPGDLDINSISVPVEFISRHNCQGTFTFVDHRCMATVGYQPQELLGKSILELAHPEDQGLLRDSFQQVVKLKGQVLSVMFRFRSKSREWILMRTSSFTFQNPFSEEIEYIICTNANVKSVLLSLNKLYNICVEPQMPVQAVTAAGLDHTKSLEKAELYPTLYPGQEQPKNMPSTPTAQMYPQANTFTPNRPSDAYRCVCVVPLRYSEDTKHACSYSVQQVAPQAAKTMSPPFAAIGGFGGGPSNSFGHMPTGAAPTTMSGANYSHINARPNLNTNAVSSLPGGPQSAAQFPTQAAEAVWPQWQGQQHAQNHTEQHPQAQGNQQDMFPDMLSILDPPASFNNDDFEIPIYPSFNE

[1] = percent of maximum efficacy determined for TCDD, COS-7 cells, 24 h exposure, None = no agonistic response significantly different from solvent
[2] = COS-7 cells, 24 h exposure, read-out: Ahr2a EC50
[3] = percent of maximum efficacy determined for TCDD, COS-7 cells, 24 h exposure, None = no agonistic response significantly different from solvent, read-out: Ahr2a Relative Emax (%)
[4] = COS-7 cells, 24 h exposure, read-out: Ahr1a EC50
[5] = percent of maximum efficacy determined for TCDD, COS-7 cells, 24 h exposure, None = no agonistic response significantly different from solvent, read-out: Ahr1a Relative Emax (%)
[6] = Supplementary Table S5, read-out: Potency (EC50, nM) Ahr2a
[7] = Supplementary Table S5, read-out: Potency (EC50, nM) Ahr1a

| Compound | Activation of Ahr2a (agonist or not) (Atlantic cod Ahr2a) | Ahr2a Relative Emax (%) (Atlantic cod Ahr2a; [1]) | Metabolic activity (cell viability) of exposed COS-7 cells (COS-7 cells) | Activation of Ahr1a (agonist or not) (Atlantic cod Ahr1a) | Ahr1a Relative Emax (%) (Atlantic cod Ahr1a; [1]) | fold higher REP25 with Ahr2a compared to Ahr1a (Atlantic cod Ahr2a) | EC50 (Atlantic cod Ahr2a; [2]) | Ahr2a REP25 (Atlantic cod Ahr2a) | Emax (Atlantic cod Ahr2a; [3]) | EC50 (Atlantic cod Ahr1a; [4]) | Ahr1a REP25 (Atlantic cod Ahr1a) | Efficacy compared to TCDD with Ahr1a (Atlantic cod Ahr1a) | Emax (Atlantic cod Ahr1a; [5]) | Efficacy compared to TCDD via Ahr2a (Atlantic cod Ahr2a) | EC50 (Atlantic cod Ahr2a; [6]) | further results |
| --- | --- | --- | --- | --- | --- | --- | --- | --- | --- | --- | --- | --- | --- | --- | --- | --- |
| Cc1cc2ccc3ccccc3c2cc1C [2,3-DMP, 2,3-Dimethylphenanthrene] | did not activate | None | slight reduction in metabolic activities | did not activate | None | – | – | – | – | – | – | – | – | – | – | – |
| COc1cccc2ccc3c4ccccc4ccc3c12 [4-MOC, 4-Methoxychrysene] | – | – | slight reduction in metabolic activities | – | – | 5- to 10 fold | 30.9 nM | 0.206 | 93.7% | 43.8 nM | 0.033 | lower efficacies than TCDD | 83.8% | – | – | – |
| COc1ccc2ccc3c4ccccc4ccc3c2c1 [3-MOC, 3-Methoxychrysene] | – | – | slight reduction in metabolic activities | – | – | 5- to 10 fold | 98.6 nM | 0.0588 | 80.8% | 195 nM | 0.0056 | lower efficacies than TCDD | 66.6% | lower efficacies in comparison to TCDD | – | – |
| Oc1cccc2c1ccc1c3ccccc3ccc21 [1-COH, Chrysene-1-ol] | – | – | slight reduction in metabolic activities | – | – | – | – | 0.0077 | – | – | 0.0045 | higher efficacies (superefficacies) than TCDD | – | lower efficacies in comparison to TCDD | – | EC50 (Atlantic cod Ahr2a; Ahr2a EC50 (nM), COS-7 cells, 24 h exposure): 633 nM; Emax (Atlantic cod Ahr2a; COS-7, read-out: Ahr2a Relative Emax (%)): 72.8%; EC50 (Atlantic cod Ahr2a; Potency (EC50, nM) Ahr2a, Supplementary Table S5): 633 nM; EC50 (Atlantic cod Ahr1a; Ahr1a EC50 (nM), COS-7 cells, 24 h exposure): 485 nM; Emax (Atlantic cod Ahr1a; COS-7, read-out: Ahr1a Relative Emax (%)): 116%; Emax (Atlantic cod Ahr1a; COS-7, read-out: Efficacy (Emax, %) Ahr1a): 116%; EC50 (Atlantic cod Ahr1a; Potency (EC50, nM) Ahr1a, Supplementary Table S5): 485 nM |
| Oc1ccc2ccc3c4ccccc4ccc3c2c1 [3-COH, Chrysene-3-ol] | – | – | slight reduction in metabolic activities | – | – | – | 275 nM | 0.0099 | 66.1% | 345 nM | 0.00257 | lower efficacies than TCDD | 86.5% | lower efficacies in comparison to TCDD | 274 nM | EC50 (Atlantic cod Ahr1a; [7]): 345 nM |
| Cc1cc2c3ccccc3ccc2c2ccccc12 [6-MC, 6-Methylchrysene] | – | – | slight reduction in metabolic activities | – | – | 5- to 10 fold | 2260 nM | 0.0031 | 89.8% | – | 0.00064 | efficacies similar to that of TCDD | 90.6% | – | 88.8 nM | EC50 (Atlantic cod Ahr1a; [7]): 3540 nM |
| Cc1ccc2ccc3ccc(C)cc3c2c1 [3,6-DMP, 3,6-Dimethylphenanthrene] | did not activate | None | – | did not activate | None | – | – | – | – | – | – | – | – | – | – | – |
| c1cc2ccc3cccc4ccc(c1)c2c34 [PYR, Pyrene] | did not activate | None | – | did not activate | None | – | – | – | – | – | – | – | – | – | – | – |
| Cc1ccc(C)c2c1ccc1ccccc12 [1,4-DMP, 1,4-Dimethylphenanthrene] | did not activate | None | – | did not activate | None | – | – | – | – | – | – | – | – | – | – | – |
| Oc1cccc2ccc3c4ccccc4ccc3c12 [4-COH, Chrysene-4-ol] | – | – | – | – | – | – | – | 0.0016 | – | 1340 nM | 0.00105 | efficacies similar to that of TCDD | 91.7% | – | 11000 nM | Emax (Atlantic cod Ahr2a; COS-7, curve did not reach a plateau: relative response at the highest tested concentration, percent of TCDD maximum, read-out: Ahr2a Relative Emax (%), marked *): 98.8% |
